The values below come from PMC9914026, “Identification of a Novel ACE Inhibitory Hexapeptide from Camellia Seed Cake and Evaluation of Its Stability” (Foods, 2023).

Molecules are shown by their SMILES. Peptide text beside a SMILES is read from it.

Data set [1] concerns the target T1, Angiotensin I-converting enzyme (ACE) from rabbit lungs (Oryctolagus cuniculus, UniProt P12822).
T1 construct: Angiotensin I-converting enzyme (ACE) from rabbit lungs (0.1 U); purchased Sigma-Aldrich (St. Louis, MO, USA); host or cells: rabbit lung tissue
T1 sequence (P12822 34-1310): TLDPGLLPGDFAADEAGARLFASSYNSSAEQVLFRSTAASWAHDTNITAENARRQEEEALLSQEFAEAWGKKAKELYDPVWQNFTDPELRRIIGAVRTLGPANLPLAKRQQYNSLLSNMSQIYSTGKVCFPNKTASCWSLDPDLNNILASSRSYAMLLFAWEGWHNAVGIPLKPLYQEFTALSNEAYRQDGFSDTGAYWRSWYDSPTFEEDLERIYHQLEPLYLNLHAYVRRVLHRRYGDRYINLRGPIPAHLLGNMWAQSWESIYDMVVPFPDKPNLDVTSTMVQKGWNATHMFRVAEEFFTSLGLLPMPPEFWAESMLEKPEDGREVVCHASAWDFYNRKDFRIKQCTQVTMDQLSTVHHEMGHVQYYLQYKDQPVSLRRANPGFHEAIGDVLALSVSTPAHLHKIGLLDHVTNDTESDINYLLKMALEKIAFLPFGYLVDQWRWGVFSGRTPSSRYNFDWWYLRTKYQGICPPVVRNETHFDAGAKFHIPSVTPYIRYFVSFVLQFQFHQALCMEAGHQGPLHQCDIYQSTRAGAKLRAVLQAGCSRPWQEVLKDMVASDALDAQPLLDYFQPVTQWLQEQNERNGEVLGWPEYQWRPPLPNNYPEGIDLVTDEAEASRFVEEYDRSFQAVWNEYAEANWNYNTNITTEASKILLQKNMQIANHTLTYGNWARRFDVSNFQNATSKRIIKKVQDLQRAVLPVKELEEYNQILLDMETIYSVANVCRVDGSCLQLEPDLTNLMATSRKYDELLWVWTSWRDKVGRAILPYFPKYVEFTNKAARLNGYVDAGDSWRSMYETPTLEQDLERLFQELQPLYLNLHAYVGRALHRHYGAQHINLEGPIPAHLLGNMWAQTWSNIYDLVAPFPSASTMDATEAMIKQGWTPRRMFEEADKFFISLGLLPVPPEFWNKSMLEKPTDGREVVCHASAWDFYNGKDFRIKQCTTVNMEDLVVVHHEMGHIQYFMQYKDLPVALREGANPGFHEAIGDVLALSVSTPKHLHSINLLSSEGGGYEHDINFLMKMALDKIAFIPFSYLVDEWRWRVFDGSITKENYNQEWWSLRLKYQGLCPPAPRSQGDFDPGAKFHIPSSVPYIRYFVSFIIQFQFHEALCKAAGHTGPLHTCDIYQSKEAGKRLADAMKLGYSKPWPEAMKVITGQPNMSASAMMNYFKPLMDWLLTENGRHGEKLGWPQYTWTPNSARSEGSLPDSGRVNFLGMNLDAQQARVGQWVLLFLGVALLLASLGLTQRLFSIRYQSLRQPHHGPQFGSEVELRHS
Nature of the data set: ACE inhibitory activity (HHL substrate, HPLC of hippuric acid). It counts as biochemical. The text has this:
Camellia seeds were purchased from Quzhou City, Zhejiang Province. Angiotensin I-converting enzyme (ACE) from rabbit lungs (0.1 U) (Table A1), ACE substrate hippuryl-histidyl-leucine (HHL) and hippuric acid (HA) standards were purchased from Sigma-Aldrich (St. Louis, MO, USA). Neutral protease (50,000 U/g), alkaline protease (200,000 U/g), papain (800,000 U/g), trypsin (250,000 U/g), and Sephadex G-25 were purchased from Beijing Solarbio Science & Technology Co., Ltd. (Beijing, China). All other chemicals used were of analytical grade.
The ACE inhibition rate was determined using High-Performance Liquid Chromatography (HPLC). In summary, 60 μL of HHL (2.5 mM) and 20 μL of samples were mixed and incubated at 37 °C for 5 min before 40 μL of ACE (0.05 U/mL) was added. The mixture was incubated at 37 °C for 1 h. Finally, the reaction was terminated by adding 120 μL of HCl solution (1 mol/L). The content of HA in the reaction system was detected by a PITC pre-column derivatization HPLC (Shimadzu LC-20AT) with a column C18 Hypersil ODS2 (4.6 mm×250 mm, 5 μm) at 228 nm. Isocratic elution was processed with the acetonitrile-water (volume ratio 1:3, each containing 0.1% TFA) solution at a constant flow rate of 1 mL/min. […]

Data set [2] has as its target T1, Angiotensin I-converting enzyme (ACE) from rabbit lungs. Nature of the data set: Stability after in vitro treatment with digestive enzymes (pepsin, trypsin). Type of data set: in vitro ADME. The note with it: 0.4 mg/mL, 2 h, read-out ACE inhibition rate, n = 3. The method, then: The ACE inhibition rate was determined using High-Performance Liquid Chromatography (HPLC). In summary, 60 μL of HHL (2.5 mM) and 20 μL of samples were mixed and incubated at 37 °C for 5 min before 40 μL of ACE (0.05 U/mL) was added. The mixture was incubated at 37 °C for 1 h. Finally, the reaction was terminated by adding 120 μL of HCl solution (1 mol/L). The content of HA in the reaction system was detected by a PITC pre-column derivatization HPLC (Shimadzu LC-20AT) with a column C18 Hypersil ODS2 (4.6 mm×250 mm, 5 μm) at 228 nm. Isocratic elution was processed with the acetonitrile-water (volume ratio 1:3, each containing 0.1% TFA) solution at a constant flow rate of 1 mL/min. The ACE inhibition rate (%) was calculated based on the following formula:ACE inhibition rate (%) = [(A0 − A1) / A0] × 100%(4) where A0 and A1 equal the HA peak areas of the blank control and sample, respectively.
The stability of VVVPQN after in vitro treatment with digestive enzymes was carried out by the method of Chai with some modifications. Briefly, in a water bath at 37 °C, VVVPQN (0.4 mg/mL) was first digested with 2% (w/w) pepsin at pH 2.0 for 2 h. The pH was then adjusted to 7.0 before trypsin was added at a 1:50 enzyme to substrate ratio. […] The stability of VVVPQN was evaluated by comparing the ACE inhibition rate before and after the digestion.

As for `CC(C)[C@H](N)C(=O)N[C@H](C(=O)N[C@H](C(=O)N1CCC[C@H]1C(=O)N[C@@H](CCC(N)=O)C(=O)N[C@@H](CC(N)=O)C(=O)O)C(C)C)C(C)C` [VVVPQN, Val-Val-Val-Pro-Gln-Asn] (H-VVVPQN-OH), the IC50 in data set [1] (from regression equation y = 23.595 ln(x) + 98.175) is 199 µM. The ACE inhibitory activity in data set [1] (synthetic peptide 0.5 mg/mL, HHL 2.5 mM, ACE 0.05 U/mL, 37 °C 1 h, HPLC 228 nm, mean, n = 3) is on record as 80.46%. Besides, in data set [2] (2% (w/w) pepsin, pH 2.0, 37 °C), the “Change of ACE inhibitory activity after simulated gastric digestion” value is “decreased significantly”. Besides, the “Change of ACE inhibitory activity after further simulated intestinal digestion” value in data set [2] (after pepsin: trypsin 1:50 enzyme to substrate, pH 7.0, 37 °C) is listed as “did not change significantly”.
